Results as given in ChEMBL document CHEMBL4007423, “Discovery of quinone-directed antitumor agents selectively bioactivated by NQO1 over CPR with improved safety profile” (Eur J Med Chem, 2017).
Calls of active or inactive are those of the source. The rule behind the calls is not given here.

Columns and labels:
[1] = biological target: T1, NADPH--cytochrome P450 reductase (Homo sapiens, UniProt P16435); assay: Substrate activity at recombinant human CPR expressed in baculovirus infected insect cells assessed as compound reduction rate by measuring NADPH consumption per umol of enzyme preincubated for 3 mins followed by NADPH addition measured for 5 mins at 2 sec time interval by UV-Visible spectroscopic method; format: ADME
T1 sequence (P16435 whole entry): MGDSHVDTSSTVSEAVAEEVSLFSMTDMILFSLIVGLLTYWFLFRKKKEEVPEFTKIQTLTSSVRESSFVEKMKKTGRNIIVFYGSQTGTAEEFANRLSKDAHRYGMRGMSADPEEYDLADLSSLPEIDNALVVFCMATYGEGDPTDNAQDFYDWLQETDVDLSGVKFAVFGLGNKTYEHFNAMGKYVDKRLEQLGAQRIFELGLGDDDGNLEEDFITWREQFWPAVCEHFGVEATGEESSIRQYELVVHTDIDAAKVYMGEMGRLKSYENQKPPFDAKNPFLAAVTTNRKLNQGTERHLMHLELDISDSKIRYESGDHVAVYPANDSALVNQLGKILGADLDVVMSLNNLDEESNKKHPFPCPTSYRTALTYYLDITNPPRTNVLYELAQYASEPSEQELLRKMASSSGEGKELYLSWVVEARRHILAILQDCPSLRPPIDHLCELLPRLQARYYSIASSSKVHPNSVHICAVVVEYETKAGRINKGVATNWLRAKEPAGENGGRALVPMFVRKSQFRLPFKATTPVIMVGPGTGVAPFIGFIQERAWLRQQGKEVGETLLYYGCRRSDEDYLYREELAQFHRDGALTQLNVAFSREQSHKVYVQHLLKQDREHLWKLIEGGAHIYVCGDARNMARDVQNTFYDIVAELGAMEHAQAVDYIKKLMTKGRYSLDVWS

Homo sapiens = organism: Homo sapiens; assay: Selectivity ratio of compound reduction rate catalyzed by recombinant human NQO1 expressed in Escherichia coli to compound reduction rate catalyzed by recombinant human CPR expressed in baculovirus infected insect cells
[2] = Electrochemical behavior of the compound assessed as electrochemical redox potential with reference to ferrocene at 1 mM using Ag/AgCl reference electrode measured up to -2 V at potential sweep rates of 50 mV/s by cyclic voltammetry
[3] = Selectivity ratio of IC50 for substrate activity at CPR in human L02 cells assessed as cell growth inhibition to IC50 for substrate activity at NQO1 in human A549 cells assessed as cell growth inhibition
A549 [4] = assay: Antitumor activity against human A549 cells xenografted in athymic nude mouse assessed as tumor growth inhibition at 30 mg/kg, iv administered every other day for 3 weeks measured twice per week during compound dosing relative to control; format: functional; details: 504 h, read-out: TGI
[5] = biological target: T1, NADPH--cytochrome P450 reductase; assay: Substrate activity at CPR in human L02 cells assessed as CPR-mediated one-electron reduction of compound by measuring cell growth inhibition at 20 to 100 uM treated for >8 hrs measured after 72 hrs by MTT assay; format: cell-based
Mus musculus [6] = assay: Toxicity in athymic nude mouse xenografted with human A549 cells assessed as change in body weight at 30 mg/kg, iv administered every other day for 3 weeks measured twice per week during compound dosing; format: organism-based; details: in vivo, 504 h
A549 [7] = assay: Antitumor activity against human A549 cells xenografted in athymic nude mouse assessed as tumor growth inhibition at 15 mg/kg, iv administered every other day for 3 weeks measured twice per week during compound dosing; format: functional, organism-based
Mus musculus [8] = assay: Toxicity in athymic nude mouse xenografted with human A549 cells assessed as change in body weight at 15 to 30 mg/kg, iv administered every other day for 3 weeks measured twice per week during compound dosing; format: organism-based; details: in vivo, 504 h
NCI-H596 = assay: Cytotoxicity against NQO1-deficient human NCI-H596 cells assessed as cell growth inhibition treated for 24 hrs measured after 72 hrs by MTT assay; format: functional, cell-based
A549 [9] = assay: Cytotoxicity against NQO1 inhibitor dicoumarol pretreated human A549 cells assessed as cell growth inhibition treated for 24 hrs measured after 72 hrs by MTT assay; format: functional, cell-based

CC1OC2=C(C(=O)C(=O)c3ccccc32)C1C (configuration not stated)
Activity [1]: 659 µmol/min | Selectivity ratio (Homo sapiens): 1.1

CC1(C)CC2=C(O1)c1ccccc1C(=O)C2=O [NOR-BETA-LAPACHONE]
Activity [1]: 1427 µmol/min | Selectivity ratio (Homo sapiens): 0.52

CCc1coc2c1C(=O)C(=O)c1cc(C)c(C)cc1-2
Activity [1]: 818 µmol/min

Cc1coc2c1C(=O)C(=O)c1c(C)ccc(C)c1-2
Activity [1]: 672 µmol/min | Activity [2]: -1.07 V | Selectivity ratio (Homo sapiens): 1.38 | Ratio IC50 [3]: 5.86

CC1(C)CCC2=C(O1)C(=O)c1ccccc1C2=O [ALPHA-LAPACHONE]
Activity [1]: 1010 µmol/min | Activity [2]: -1.22 V | Selectivity ratio (Homo sapiens): 0.72

Cc1coc2c1C(=O)C(=O)c1ccccc1-2
Activity [1]: 1201 µmol/min | Activity [2]: -1.03 V | Selectivity ratio (Homo sapiens): 0.63

Cc1ccc2c(c1)C(=O)C(=O)c1c(C)coc1-2
Activity [1]: 891 µmol/min | Activity [2]: -1.04 V | Selectivity ratio (Homo sapiens): 1.82 | Ratio IC50 [3]: 2.59

O=C1C(=O)c2ccoc2-c2ccccc21
Activity [1]: 1221 µmol/min | Activity [2]: -0.98 V | Selectivity ratio (Homo sapiens): 1.18

CC1(C)CCC2=C(O1)c1ccccc1C(=O)C2=O [LAPACHONE]
Activity [1]: 923 µmol/min | Activity [2]: -1.02 V | inhibition in vivo at 30 mg/kg (A549 [4]): 70.7% | growth inhibition (GI) [5]: Active

Cc1cc2c(cc1C)-c1occc1C(=O)C2=O
Activity [1]: 400 µmol/min

CCc1coc2c1C(=O)C(=O)c1cc(C)ccc1-2
Activity [1]: 796 µmol/min | Selectivity ratio (Homo sapiens): 1.63 | Ratio IC50 [3]: 8.06

COc1ccc2c(c1)C(=O)C(=O)C1=C2OC(C)C1(C)C (configuration not stated)
Activity [1]: 782 µmol/min | Activity [2]: -1.09 V

Cc1ccc2c(c1)-c1occ(C)c1C(=O)C2=O
Activity [1]: 835 µmol/min | Activity [2]: -1.05 V | Selectivity ratio (Homo sapiens): 1.25 | Ratio IC50 [3]: 1.54

CC1OC2=C(C(=O)C(=O)c3ccccc32)C1(C)C (configuration not stated)
Activity [1]: 1437 µmol/min | Activity [2]: -1.01 V | Selectivity ratio (Homo sapiens): 0.7

CCc1coc2c1C(=O)C(=O)c1ccccc1-2
Activity [1]: 1382 µmol/min | Selectivity ratio (Homo sapiens): 0.54

Cc1cc(=O)n(C)c2c1C(=O)C1=C(C=CC(C)(C)O1)C2=O
Activity [1]: 1422 µmol/min | Activity [2]: -0.9 V | Selectivity ratio (Homo sapiens): 0.81

COc1ccc2c(c1)C1=C(C(=O)C2=O)C(C)(C)C(C)O1 (configuration not stated)
Activity [1]: 812 µmol/min | Activity [2]: -1.13 V

CCc1coc2c1C(=O)C(=O)c1ccc(C)cc1-2
Activity [1]: 1014 µmol/min | Selectivity ratio (Homo sapiens): 1.17

CC1CC2=C(O1)c1ccccc1C(=O)C2=O (configuration not stated)
Activity [1]: 905 µmol/min | Selectivity ratio (Homo sapiens): 0.71

COc1cccc2c1C1=C(C(=O)C2=O)C(C)(C)C(C)O1 (configuration not stated)
Activity [1]: 764 µmol/min | Activity [2]: -1.1 V

CC1(C)C=CC2=C(O1)C(=O)c1ccccc1C2=O [DEHYDRO-ALPHA-LAPACHONE]
Activity [1]: 852 µmol/min | Activity [2]: -1.22 V | Selectivity ratio (Homo sapiens): 0.91

Cc1cc2c(cc1C)-c1occ(C)c1C(=O)C2=O
Activity [1]: 142 µmol/min | Activity [2]: -1.09 V | Activity (Mus musculus [6]): Non-Toxic | inhibition in vivo at 30 mg/kg (A549 [4]): 67.5% | TGI (A549 [7]): Active | Activity (Mus musculus [8]): Non-Toxic | IC50 (NCI-H596): 35 µM | Ratio IC50 [3]: 10.6 | IC50 (A549 [9]): 21 µM

CC1OC2=C(C(=O)c3ccccc3C2=O)C1(C)C (stereo not drawn) [ALPHA-DUNNIONE]
Activity [1]: 1011 µmol/min | Activity [2]: -1.19 V | Selectivity ratio (Homo sapiens): 0.72
